pIC50: −log10 of the molar value.
Key:
Human Trypsin = experiment: Enzyme selectivity evaluation test: trypsin; assay type: biochemical
Description: S-2222 (Bz-Ile-Glu(γ-OR)-Gly-Arg-pNA.HCl (SEQ ID NO: 1), R═H (50%) and R═CH3 (50%)) was added as the substrate at a final concentration of 150 μmol/L. After progression of the reaction, the absorbance was measured at OD 405 nm.

Human urokinase = target: T1, Human urokinase (Homo sapiens, UniProt P00749); experiment: Enzyme selectivity evaluation test: urokinase; assay type: biochemical
T1 construct: purchased Calbiochem
Description: S-2444 (pyroGlu-Gly-Arg-pNA.HCl) was added as the substrate at a final concentration of 300 μmol/L. After progression of the reaction, the absorbance was measured at OD 405 nm.

Human FXIIa = target: T2, Human FXIIa (Homo sapiens, UniProt P00748); experiment: Enzyme selectivity evaluation test: FXIIa; assay type: biochemical
T2 construct: 5) Factor XIIa (FXIIa); purchased Enzyme Research Laboratories
Description: (§1) S-2288 (H-D-Ile-Pro-Arg-pNA.2HCl) was added as the substrate at a final concentration of 300 μmol/L. After progression of the reaction, the absorbance was measured at OD 405 nm.

[1] = Dog PK test (Test Example 9); assay type: in vivo; conditions: plasma, 1 mg/kg, male beagle, intravenous, 1 mg/2 mL/kg, read-out: AUC from 0 hours to 24 hours (compound of Reference Example 2-6 in plasma)
Description: The compound of Reference Example 2-6 was dissolved in a mixed solution of saline/0.1 N HCl=9/1, and this solution was intravenously administered at a dose of 1 mg/2 mL/kg to a male beagle. Blood collection was carried out 0.25, 0.5, 1, 2, 4, 6, and 24 hours after administration. 2 mL of blood was collected using a syringe packed with 20 μL of Novo-Heparin Injection, transferred to a centrifugal tube cooled in ice, and centrifuged at 3000 rpm at 4° C. for 10 minutes to prepare plasma. 200 μL of the prepared plasma was added to a tube containing 600 μL of acetonitrile and mixed for approximately 10 seconds using a vortex mixer. Then, the concentration of the compound of Reference Example 2-6 was measured.
The compound of Example 7 was suspended in a 0.5% aqueous methylcellulose solution, and this suspension was orally administered at a dose of 5 mg/5 mL/kg to a male beagle fasted for 16 hours. Blood collection was carried out 0.5, 1, 2, 4, 6, and 24 hours after administration. 2 mL of blood was collected using a syringe packed with 20 μL of Novo-Heparin Injection, transferred to a centrifugal tube cooled in ice, and centrifuged at 3000 rpm at 4° C. for 10 minutes to prepare plasma. […] Then, the concentration of the compound of Reference Example 2-6 was measured.

Human plasmin = target: T3, Human plasmin (Homo sapiens, UniProt P00747); experiment: Enzyme selectivity evaluation test: plasmin; assay type: biochemical
T3 construct: Human plasmin (manufactured by Sekisui Diagnostics, LLC); purchased Sekisui Diagnostics, LLC
Description: as §1

[2] = system: Rabbit nail bleeding models; experiment: Effect of combined use with antiplatelet drug using rabbit nail bleeding model; assay type: in vivo; conditions: alone; for Bleeding time: rabbit, maximum 60 minutes; for Bleeding time (fold-increase): ratio to vehicle group average
Description: Rabbit nail bleeding models were prepared by a modification of the report of Wong et al. (Wong P C. et al., J. Thromb. Haemost. 7: 1313-1320 (2009)). Male rabbits (JW, 1.5 to 3.5 kg) were anesthetized by the inhalation of isoflurane (ISOFLU®, manufactured by DS Pharma Animal Health Co., Ltd.) (introduced anesthesia: 4%, continuous anesthesia: 2 to 3%). For the intravenous administration of a test drug or a vehicle, an indwelling needle was inserted to the auricular vein, and the test drug or the vehicle was promptly intravenously administered (0.67 mL/kg) and then continuously intravenously administered (1 mL/kg/hr). One hour after the start of administration, three posterior toenails were cut and dipped in saline heated to approximately 37° C., and the bleeding time was measured. The bleeding time was defined as a time from the cutting to the arrest of bleeding, and an average value from the three nails was used. The measurement time was 60 minutes at the maximum. If bleeding for 60 minutes or longer was confirmed, the bleeding time was regarded as 60 minutes.

Human kallikrein = target: T4, Human kallikrein (Homo sapiens, UniProt P03952); experiment: Enzyme selectivity evaluation test: plasma kallikrein; assay type: biochemical
T4 construct: purchased Enzyme Research Laboratories
Description: as §1

human thrombin = target: T5, human thrombin (Homo sapiens, UniProt P00734); experiment: Enzyme selectivity evaluation test: thrombin; assay type: biochemical
T5 construct: human thrombin (manufactured by Enzyme Research Laboratories); purchased Enzyme Research Laboratories
Description: S-2366 (pyroGlu-Pro-Arg-pNA.HCl) was added as the substrate at a final concentration of 300 μmol/L. After progression of the reaction, the absorbance was measured at OD 405 nm.

[3] = dose 1.5 + 2.25 mg/kg + mg/kg/h i.v.
[4] = dose 5.0 + 7.5 mg/kg + mg/kg/h i.v.

T2 sequence (P00748 373-615 limits assumed): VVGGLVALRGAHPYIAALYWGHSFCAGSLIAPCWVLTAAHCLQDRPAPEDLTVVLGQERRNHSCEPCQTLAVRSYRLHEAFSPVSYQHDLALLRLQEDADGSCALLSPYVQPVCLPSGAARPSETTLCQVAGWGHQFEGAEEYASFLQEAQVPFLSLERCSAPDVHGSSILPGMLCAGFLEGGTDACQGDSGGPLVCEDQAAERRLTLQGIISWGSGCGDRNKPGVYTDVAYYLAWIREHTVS
T2 sequence (P00748 20-372 partner limits assumed): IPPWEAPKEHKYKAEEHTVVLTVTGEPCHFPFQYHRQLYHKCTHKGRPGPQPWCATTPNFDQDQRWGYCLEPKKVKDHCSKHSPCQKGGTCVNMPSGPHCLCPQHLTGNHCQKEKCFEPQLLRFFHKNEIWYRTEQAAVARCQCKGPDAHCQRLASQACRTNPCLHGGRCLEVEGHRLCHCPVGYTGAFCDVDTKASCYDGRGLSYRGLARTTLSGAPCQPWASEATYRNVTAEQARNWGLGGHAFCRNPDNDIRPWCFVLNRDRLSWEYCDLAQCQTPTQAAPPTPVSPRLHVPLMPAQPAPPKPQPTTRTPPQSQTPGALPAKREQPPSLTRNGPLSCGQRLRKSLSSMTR
T4 sequence (P03952 391-638 limits assumed): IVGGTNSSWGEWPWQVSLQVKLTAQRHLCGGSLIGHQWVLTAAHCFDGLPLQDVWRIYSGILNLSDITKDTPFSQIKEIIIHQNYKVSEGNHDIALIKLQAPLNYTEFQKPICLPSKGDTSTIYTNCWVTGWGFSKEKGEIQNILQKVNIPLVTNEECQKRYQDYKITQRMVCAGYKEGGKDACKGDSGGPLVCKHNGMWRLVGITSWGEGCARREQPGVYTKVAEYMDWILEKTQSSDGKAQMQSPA
T4 sequence (P03952 20-390 partner limits assumed): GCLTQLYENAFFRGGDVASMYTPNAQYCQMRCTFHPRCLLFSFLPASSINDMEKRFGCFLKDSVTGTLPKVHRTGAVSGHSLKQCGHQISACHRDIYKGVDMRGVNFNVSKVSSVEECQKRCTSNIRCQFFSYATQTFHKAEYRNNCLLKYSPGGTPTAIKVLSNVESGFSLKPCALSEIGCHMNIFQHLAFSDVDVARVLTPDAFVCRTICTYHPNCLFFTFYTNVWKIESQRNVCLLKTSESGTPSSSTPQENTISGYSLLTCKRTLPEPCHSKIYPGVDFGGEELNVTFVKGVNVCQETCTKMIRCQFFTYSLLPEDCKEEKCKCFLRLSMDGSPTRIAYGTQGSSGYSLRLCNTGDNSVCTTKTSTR
T3 sequence (P00747 581-810 limits assumed): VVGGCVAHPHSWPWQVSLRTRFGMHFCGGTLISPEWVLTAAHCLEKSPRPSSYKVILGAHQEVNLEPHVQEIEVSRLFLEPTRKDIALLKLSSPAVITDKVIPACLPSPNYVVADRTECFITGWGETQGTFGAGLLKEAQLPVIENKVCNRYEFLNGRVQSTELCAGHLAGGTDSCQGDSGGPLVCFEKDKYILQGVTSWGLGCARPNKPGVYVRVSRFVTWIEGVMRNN
T3 sequence (P00747 97-580 partner limits assumed): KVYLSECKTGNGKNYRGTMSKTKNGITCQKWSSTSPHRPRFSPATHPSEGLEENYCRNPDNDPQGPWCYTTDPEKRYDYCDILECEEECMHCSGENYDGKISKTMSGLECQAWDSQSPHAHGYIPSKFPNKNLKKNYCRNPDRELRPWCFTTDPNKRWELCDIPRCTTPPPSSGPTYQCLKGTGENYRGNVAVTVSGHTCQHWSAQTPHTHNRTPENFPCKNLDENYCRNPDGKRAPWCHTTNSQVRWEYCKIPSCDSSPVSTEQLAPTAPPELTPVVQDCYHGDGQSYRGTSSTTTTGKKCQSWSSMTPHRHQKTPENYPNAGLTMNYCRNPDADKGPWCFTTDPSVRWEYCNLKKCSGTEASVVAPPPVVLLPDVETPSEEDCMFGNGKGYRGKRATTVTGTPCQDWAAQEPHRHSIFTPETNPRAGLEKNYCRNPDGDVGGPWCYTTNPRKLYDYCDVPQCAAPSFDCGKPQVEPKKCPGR

Cl.N[C@H](CF)[C@H]1CC[C@H](C(=O)N2CC[C@@H](C3CCCCC3)[C@H]2C(=O)Nc2ccc3[nH]c(C(=O)O)cc3c2)CC1 [Reference Example 2-6, 5-{[(3S)-1-({trans-4-[(1S)-1-Amino-2-fluoroethyl]cyclohexyl}carbonyl)-3-cyclohexyl-L-prolyl]amino}-1H-indole-2-carboxylic acid hydrochloride]
pIC50 (Human Trypsin): < 5.00 | pIC50 (Human urokinase): < 5.00 | pIC50 (Human FXIIa): < 5.00 | AUC [1]: 4420 ng·h/mL | pIC50 (Human plasmin): < 5.00 | Bleeding time [2, 3]: 772 ± 234 s | Bleeding time [2, 4]: 768 ± 236 s | Bleeding time (fold-increase) [2, 3]: 1.3 ± 0.4 fold-increase | Bleeding time (fold-increase) [2, 4]: 1.3 ± 0.4 fold-increase | pIC50 (Human kallikrein): 6.37 | pIC50 (human thrombin): < 5.00

From patent publication US9718840B2, “Condensed 5-oxazolidinone derivative” (SUMITOMO DAINIPPON PHARMA CO., LTD., priority 2014, dated 2017)
